According to patent publication US20250074871A1, “PHENETHYLAMINES AND METHODS OF PREPARATION THEREOF” (priority 2022, published 2025):
Several values for one entry are separate records, joined by “and”; a condition that tells them apart may be missing. Equal values may be shown once. Read-outs that look alike come from different tables or passages of the source.

How the values were obtained:
[1] = biological target: 5-HT1D (Homo sapiens, UniProt P28221); assay: 5-HT receptor activity panel (Table 3); type: cell-based; conditions: Table 3
[2] = biological target: 5-HT6 (Homo sapiens, UniProt P50406); assay: 5-HT receptor activity panel (Table 3); type: cell-based
[3] = biological target: 5-HT1B (Homo sapiens, UniProt P28222); assay: 5-HT receptor activity panel (Table 3); type: cell-based; conditions: Table 3
[4] = biological target: 5-HT1E (Homo sapiens, UniProt P28566); assay: 5-HT receptor activity panel (Table 3); type: cell-based
[5] = biological target: 5-HT4 (Homo sapiens, UniProt Q13639); assay: 5-HT receptor activity panel (Table 3); type: cell-based; conditions: Table 3
[6] = in vitro hepatocyte clearance, mouse; type: in vitro ADME; conditions: Mouse hepatocytes; for hepatocyte CLint: read-out: In vitro Clint (μL/min/10^6 cells); for half-life: read-out: In vitro T1/2; for CLint scaled: read-out: Scale-up Clint
Description: (§1) Additional experimentation was performed on compound 109. Table 6 summarizes, among other things, the anticipated hepatic clearance of compound 109 in various species, as specified in Table 6 and as determined by calculating the in vitro hepatocyte clearance over time and scaling such rate with such species' hepatocyte count and the anticipated liver blood flow rate in such species.

[7] = tested on: hepatocyte; assay: in vitro hepatocyte clearance, mouse; type: in vitro ADME; conditions: Mouse
Description: as §1

[8] = biological target: 5-HT5A (Homo sapiens, UniProt P47898); assay: 5-HT receptor activity panel (Table 3); type: cell-based; conditions: Table 3
[9] = in vitro hepatocyte clearance, monkey; type: in vitro ADME; conditions: Monkey hepatocytes; for hepatocyte CLint: read-out: In vitro Clint (μL/min/10^6 cells); for half-life: read-out: In vitro T1/2; for CLint scaled: read-out: Scale-up Clint
Description: as §1

[10] = tested on: hepatocyte; assay: in vitro hepatocyte clearance, monkey; type: in vitro ADME; conditions: Monkey
Description: as §1

[11] = biological target: T1, 5-HT2C receptor (Homo sapiens, UniProt P28335); assay: cell-based; type: cell-based; conditions: for 5-HT2C BRET Eff %: normalized to % 5-HT stimulation
T1 construct: expressed in transfected cells; host or cells: HEK293T
T1 sequence (P28335 33-458): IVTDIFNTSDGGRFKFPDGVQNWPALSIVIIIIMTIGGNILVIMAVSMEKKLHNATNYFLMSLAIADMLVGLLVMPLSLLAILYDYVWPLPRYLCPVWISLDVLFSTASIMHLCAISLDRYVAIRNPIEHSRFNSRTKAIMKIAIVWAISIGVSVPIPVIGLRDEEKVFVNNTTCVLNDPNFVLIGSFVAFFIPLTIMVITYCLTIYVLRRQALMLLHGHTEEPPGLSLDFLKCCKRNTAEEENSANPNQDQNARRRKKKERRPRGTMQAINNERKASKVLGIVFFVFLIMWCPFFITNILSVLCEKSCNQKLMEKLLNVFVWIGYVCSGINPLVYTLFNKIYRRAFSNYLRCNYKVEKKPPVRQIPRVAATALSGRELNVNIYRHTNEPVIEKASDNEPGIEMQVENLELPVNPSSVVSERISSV

[12] = in vitro hepatocyte clearance, rat; type: in vitro ADME; conditions: for hepatocyte CLint / half-life: Rat hepatocytes; for hepatocyte CLint: read-out: In vitro Clint (μL/min/10^6 cells); for half-life: read-out: In vitro T1/2; for CLint scaled: rat, hepatocytes, read-out: Scale-up Clint
Description: as §1

[13] = tested on: hepatocyte; assay: in vitro hepatocyte clearance, rat; type: in vitro ADME; conditions: Rat
Description: as §1

[14] = biological target: T2, human ether-a-go-go-related gene (hERG) K+ channel (Homo sapiens, UniProt Q12809); assay: Eurofins hERG Qube APC Assay; type: cell-based; conditions: for IC50 (hERG)/EC50 (5-HT2A) ratio: Table 4
T2 construct: Eurofins
Text: As used herein and unless otherwise specified, the term “hERG risk” refers to the risk of a compound potentially inhibiting the human ether-a-go-go-related gene (hERG) K^+ channel, thereby leading to QT prolongation.
As a result of, many compounds disclosed in Table 1 and Table 2 were screened for the potential of “hERG risk” using pharmacological assays (e.g. Eurofins™ hERG Qube APC Assay). […].

[15] = plasma and brain PK predicted in humans; conditions: Human (predicted); for Kp: brain; for clearance: read-out: Cltot (converted); for half-life: read-out: T1/2 Vz (converted); for Vd: read-out: Vz
Text: Table 7a and Table 7b summarize, among other things, the observed plasma and Brain P K properties in animals, and the observed plasma and Brain P K properties predicted in humans, for compound 109 in Table 7a and compound 93 for Table 7b: […]

[16] = in vitro hepatocyte clearance, human; type: in vitro ADME; conditions: Human hepatocytes; for hepatocyte CLint: read-out: In vitro Clint (μL/min/10^6 cells); for half-life: read-out: In vitro T1/2; for CLint scaled: read-out: Scale-up Clint
Description: as §1

[17] = tested on: hepatocyte; assay: in vitro hepatocyte clearance, human; type: in vitro ADME; conditions: Human
Description: as §1

[18] = tested on: mice; assay: head-twitch response (HTR) in mice; type: in vivo, male C57BL/6J mice; conditions: for ED50: Mus musculus
Description: As used herein and unless otherwise specified, the term “HTR” refers to head-twitch response, which is a measurement of 5-HT2A activation in vivo.
As used herein and unless otherwise specified, the term “mice” refers to male C57BL/6J mice (6-8 weeks old).
HTR was assessed using a head-mounted neodymium magnet and a magnetometer detection coil, as described in Halberstadt et al., Psychopharmacology (Berl.), 2013, 227(4): 727-739. Table 8 below summarizes the ED50 in head twitch in mice of various compounds disclosed herein as compared to psilocybin. FIG. 3 illustrates the HTR relative to dose for compound 109: […]

[19] = biological target: 5-HT7 (Homo sapiens, UniProt P34969); assay: 5-HT receptor activity panel (Table 3); type: cell-based
[20] = biological target: T3, 5-HT2A receptor (Homo sapiens, UniProt P28223); assay: 5-HT2A Gq dissociation BRET functional assay; type: cell-based; conditions: for 5-HT2A BRET Eff %: normalized to % 5-HT stimulation
T3 construct: expressed in transfected cells; host or cells: HEK293T

[21] = Table 2, at least three replicate trials, read-out: 5-HT2C BRET EC50
[22] = Table 3 panel, read-out: 5-HT2C EC50

Chain of 5-HT1D (P28221 whole entry, species assumed): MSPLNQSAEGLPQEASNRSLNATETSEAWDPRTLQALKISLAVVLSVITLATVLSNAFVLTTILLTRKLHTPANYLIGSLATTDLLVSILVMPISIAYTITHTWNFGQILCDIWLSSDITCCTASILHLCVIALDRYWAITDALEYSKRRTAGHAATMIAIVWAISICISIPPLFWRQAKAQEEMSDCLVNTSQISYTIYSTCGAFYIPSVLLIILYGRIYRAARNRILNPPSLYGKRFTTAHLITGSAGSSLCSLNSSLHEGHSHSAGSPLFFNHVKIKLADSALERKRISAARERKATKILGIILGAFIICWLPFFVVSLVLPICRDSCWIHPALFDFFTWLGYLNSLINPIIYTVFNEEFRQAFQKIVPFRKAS
T2 sequence (Q12809 whole entry): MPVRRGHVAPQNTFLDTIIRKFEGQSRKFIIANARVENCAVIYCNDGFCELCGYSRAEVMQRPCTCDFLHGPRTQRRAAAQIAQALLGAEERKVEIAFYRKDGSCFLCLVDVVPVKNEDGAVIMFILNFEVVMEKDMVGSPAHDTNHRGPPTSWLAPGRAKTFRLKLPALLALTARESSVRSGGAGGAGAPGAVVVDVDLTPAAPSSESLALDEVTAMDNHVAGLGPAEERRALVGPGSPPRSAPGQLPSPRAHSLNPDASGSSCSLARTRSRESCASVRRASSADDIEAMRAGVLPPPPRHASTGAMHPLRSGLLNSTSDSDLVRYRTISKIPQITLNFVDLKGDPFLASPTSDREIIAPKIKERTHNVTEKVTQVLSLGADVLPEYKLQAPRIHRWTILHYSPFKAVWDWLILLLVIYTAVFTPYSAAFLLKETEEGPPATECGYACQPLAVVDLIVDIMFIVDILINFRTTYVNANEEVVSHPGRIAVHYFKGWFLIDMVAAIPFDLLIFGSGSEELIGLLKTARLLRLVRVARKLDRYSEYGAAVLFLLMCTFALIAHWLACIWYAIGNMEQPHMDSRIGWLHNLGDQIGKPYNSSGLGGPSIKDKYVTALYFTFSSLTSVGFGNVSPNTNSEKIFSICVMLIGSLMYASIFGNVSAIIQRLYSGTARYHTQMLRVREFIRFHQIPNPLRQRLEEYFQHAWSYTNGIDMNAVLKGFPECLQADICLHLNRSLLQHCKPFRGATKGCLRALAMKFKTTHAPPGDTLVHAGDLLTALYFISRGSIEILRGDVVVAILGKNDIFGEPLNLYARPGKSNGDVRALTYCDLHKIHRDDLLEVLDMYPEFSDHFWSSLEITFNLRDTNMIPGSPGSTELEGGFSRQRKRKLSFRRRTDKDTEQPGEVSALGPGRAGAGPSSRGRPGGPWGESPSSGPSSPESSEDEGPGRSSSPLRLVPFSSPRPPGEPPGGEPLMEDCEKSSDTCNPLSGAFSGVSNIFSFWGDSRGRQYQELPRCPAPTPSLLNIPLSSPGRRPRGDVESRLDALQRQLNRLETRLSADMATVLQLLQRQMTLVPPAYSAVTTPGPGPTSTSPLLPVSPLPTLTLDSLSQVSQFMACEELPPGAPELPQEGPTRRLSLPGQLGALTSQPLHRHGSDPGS
Chain of 5-HT4 (Q13639 whole entry, species assumed): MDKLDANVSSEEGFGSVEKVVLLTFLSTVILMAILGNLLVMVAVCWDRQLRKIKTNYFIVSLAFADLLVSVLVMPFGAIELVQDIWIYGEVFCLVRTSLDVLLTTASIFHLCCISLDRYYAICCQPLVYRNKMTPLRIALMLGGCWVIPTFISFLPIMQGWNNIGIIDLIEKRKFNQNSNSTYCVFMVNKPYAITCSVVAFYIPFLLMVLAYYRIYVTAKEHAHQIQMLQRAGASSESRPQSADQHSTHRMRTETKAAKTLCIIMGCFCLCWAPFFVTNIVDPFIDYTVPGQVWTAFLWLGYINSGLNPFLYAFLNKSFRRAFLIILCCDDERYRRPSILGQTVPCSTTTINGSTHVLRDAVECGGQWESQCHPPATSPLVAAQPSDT
Chain of 5-HT6 (P50406 whole entry, species assumed): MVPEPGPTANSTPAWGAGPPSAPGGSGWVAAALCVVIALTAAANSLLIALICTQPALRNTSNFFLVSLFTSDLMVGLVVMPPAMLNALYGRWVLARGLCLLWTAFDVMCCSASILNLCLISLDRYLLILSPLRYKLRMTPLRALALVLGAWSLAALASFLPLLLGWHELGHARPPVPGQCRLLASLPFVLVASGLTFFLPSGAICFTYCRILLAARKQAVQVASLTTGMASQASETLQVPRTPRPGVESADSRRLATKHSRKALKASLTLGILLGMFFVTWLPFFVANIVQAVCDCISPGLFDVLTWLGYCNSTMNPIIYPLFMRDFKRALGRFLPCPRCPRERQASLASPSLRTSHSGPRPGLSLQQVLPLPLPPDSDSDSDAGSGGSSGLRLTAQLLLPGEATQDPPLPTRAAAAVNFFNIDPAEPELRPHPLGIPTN
T3 sequence (P28223 whole entry): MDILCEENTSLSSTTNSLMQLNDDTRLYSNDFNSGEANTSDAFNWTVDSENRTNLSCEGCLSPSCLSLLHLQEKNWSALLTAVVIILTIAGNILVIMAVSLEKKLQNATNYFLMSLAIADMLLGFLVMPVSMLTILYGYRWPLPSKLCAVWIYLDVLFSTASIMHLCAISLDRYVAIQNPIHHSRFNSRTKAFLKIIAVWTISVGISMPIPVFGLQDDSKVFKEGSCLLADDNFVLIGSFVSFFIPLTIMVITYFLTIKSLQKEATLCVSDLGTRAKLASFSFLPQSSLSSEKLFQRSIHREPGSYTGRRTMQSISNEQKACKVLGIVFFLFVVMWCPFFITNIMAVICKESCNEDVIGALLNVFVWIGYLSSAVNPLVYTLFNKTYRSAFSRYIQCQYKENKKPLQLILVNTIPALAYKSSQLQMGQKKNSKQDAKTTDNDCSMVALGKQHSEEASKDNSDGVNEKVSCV
Chain of 5-HT5A (P47898 whole entry, species assumed): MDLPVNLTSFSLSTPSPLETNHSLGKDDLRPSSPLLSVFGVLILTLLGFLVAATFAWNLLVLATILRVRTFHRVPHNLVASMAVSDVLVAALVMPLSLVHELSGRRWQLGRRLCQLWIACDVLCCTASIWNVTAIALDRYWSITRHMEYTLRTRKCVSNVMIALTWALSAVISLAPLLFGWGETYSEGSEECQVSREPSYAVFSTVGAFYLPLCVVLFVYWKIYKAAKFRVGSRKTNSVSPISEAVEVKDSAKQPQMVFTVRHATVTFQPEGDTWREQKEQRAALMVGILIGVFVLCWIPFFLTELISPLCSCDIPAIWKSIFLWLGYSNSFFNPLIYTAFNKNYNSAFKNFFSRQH
Chain of 5-HT1E (P28566 whole entry, species assumed): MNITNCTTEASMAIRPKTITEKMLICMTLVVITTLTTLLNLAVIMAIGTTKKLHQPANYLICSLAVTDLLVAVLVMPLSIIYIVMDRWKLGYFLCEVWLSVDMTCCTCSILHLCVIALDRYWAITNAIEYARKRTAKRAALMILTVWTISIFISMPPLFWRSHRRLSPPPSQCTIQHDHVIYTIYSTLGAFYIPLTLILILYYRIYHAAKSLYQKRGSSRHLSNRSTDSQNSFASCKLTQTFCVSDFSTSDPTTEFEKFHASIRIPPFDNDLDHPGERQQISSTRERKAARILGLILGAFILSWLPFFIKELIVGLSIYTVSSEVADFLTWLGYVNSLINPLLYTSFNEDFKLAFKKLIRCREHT
Chain of 5-HT7 (P34969 whole entry, species assumed): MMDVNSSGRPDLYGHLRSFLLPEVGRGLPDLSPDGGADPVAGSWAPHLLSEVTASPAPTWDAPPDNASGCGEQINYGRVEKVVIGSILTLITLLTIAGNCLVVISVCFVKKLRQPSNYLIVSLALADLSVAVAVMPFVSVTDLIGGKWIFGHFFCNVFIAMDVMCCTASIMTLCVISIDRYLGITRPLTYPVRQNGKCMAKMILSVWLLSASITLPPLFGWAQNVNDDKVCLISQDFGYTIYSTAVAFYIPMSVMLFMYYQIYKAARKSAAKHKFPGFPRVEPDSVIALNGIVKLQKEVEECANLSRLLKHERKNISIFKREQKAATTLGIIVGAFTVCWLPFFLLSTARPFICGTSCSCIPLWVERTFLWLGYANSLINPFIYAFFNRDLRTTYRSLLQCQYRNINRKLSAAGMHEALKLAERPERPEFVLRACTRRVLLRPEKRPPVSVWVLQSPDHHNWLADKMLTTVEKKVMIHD
Chain of 5-HT1B (P28222 whole entry, species assumed): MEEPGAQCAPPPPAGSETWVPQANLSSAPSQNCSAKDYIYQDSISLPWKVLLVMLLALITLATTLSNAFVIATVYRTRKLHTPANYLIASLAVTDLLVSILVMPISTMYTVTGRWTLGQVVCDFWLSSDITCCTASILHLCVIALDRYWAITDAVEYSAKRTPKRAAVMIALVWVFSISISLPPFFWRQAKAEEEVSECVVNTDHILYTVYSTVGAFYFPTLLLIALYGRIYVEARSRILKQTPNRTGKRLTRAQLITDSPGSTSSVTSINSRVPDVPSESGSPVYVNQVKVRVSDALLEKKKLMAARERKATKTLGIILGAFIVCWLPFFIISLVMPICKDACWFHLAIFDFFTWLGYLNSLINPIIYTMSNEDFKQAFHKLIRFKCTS

COc1cc(C(F)(F)F)ccc1CCNCc1ccccc1O [Cpd #93]
5-HT1D EC50, nM [1]: Not active | EC50 [2]: 0.6 nM | 5-HT6 Eff, % ([2]; Table 3): −12% | 5-HT1B EC50, nM [3]: Not active | EC50 [4]: 70100 nM | 5-HT1E Eff, % ([4]; Table 3): 211% | 5-HT4 EC50, nM [5]: Not active | hepatocyte CLint [6]: < 614 µL/min/1e6 cells | half-life [6]: > 2.26 min | CLint scaled [6]: < 435 L/h/kg | Predicted hepatic CL [7]: <5.334 L/h/kg | 5-HT5A EC50, nM [8]: Not active | hepatocyte CLint [9]: 467 µL/min/1e6 cells | half-life [9]: 2.97 min | CLint scaled [9]: 101 L/h/kg | Predicted hepatic CL [10]: 2.55 L/h/kg | EC50 [11, 21]: 1.1 nM and 1.3 nM | 5-HT2C BRET Eff % ([11]; Table 2): 105% and 103% | 5-HT2C Eff, % ([11]; Table 3 panel): 99% | EC50 [11, 22]: 1.5 nM | hepatocyte CLint [12]: < 614 µL/min/1e6 cells | half-life [12]: > 2.26 min | CLint scaled [12]: < 172 L/h/kg | Predicted hepatic CL [13]: <3.25 L/h/kg | IC50 [14]: 620 nM | IC50 (hERG)/EC50 (5-HT2A) ratio [14]: 517 | Kp ([15]; read-out: Brain/plasma Ratio): 9.55 | clearance ([15]; plasma): 2.27 L/h/kg | half-life ([15]; plasma): 117 min | Vd ([15]; plasma): 6.39 L/kg | hepatocyte CLint [16]: 54.8 µL/min/1e6 cells | half-life [16]: 25.3 min | CLint scaled [16]: 8.37 L/h/kg | Predicted hepatic CL [17]: 1.082 L/h/kg | ED50 ([18]; mice): 0.28 mg/kg | EC50 [19]: 0.5 nM | 5-HT7 Eff, % ([19]; Table 3): −12% | EC50 ([20]; 5-HT2A BRET EC50 (nM), Table 2, at least three replicate trials): 0.7 nM and 1.17 nM | EC50 ([20]; 5-HT2A EC50, nM, Table 3 panel): 0.3 nM | EC50 ([20]; EC50 BRET 2A, Table 4, unit inferred): 1.2 nM | 5-HT2A BRET Eff % ([20]; Table 2): 96% and 91% | 5-HT2A Eff, % ([20]; Table 3 panel): 96%

CSc1ccccc1CNCCc1ccc(C#N)cc1O [Cpd #109]
5-HT1D Eff, % [1]: 6% | EC50 ([1]; read-out: 5-HT1D EC50): 379 nM | 5-HT6 Eff, % ([2]; Table 3): 18% | EC50 ([2]; Table 3, read-out: 5-HT6 EC50): 5390 nM | 5-HT1B EC50, nM [3]: Not active | 5-HT1E Eff, % ([4]; Table 3): 12% | EC50 ([4]; Table 3, read-out: 5-HT1E EC50): 814 nM | 5-HT4 Eff, % [5]: −3% | EC50 ([5]; read-out: 5-HT4 EC50): 0.2 nM | hepatocyte CLint [6]: > 614 µL/min/1e6 cells | half-life [6]: < 2.26 min | CLint scaled [6]: > 435 L/h/kg | Hepatic Extraction Ratio (E) [7]: >0.99 | Predicted hepatic CL [7]: >5.334 L/h/kg | 5-HT5A Eff, % [8]: −133% | EC50 ([8]; read-out: 5-HT5A EC50): 12300 nM | hepatocyte CLint [9]: 499 µL/min/1e6 cells | half-life [9]: 2.78 min | CLint scaled [9]: 108 L/h/kg | Hepatic Extraction Ratio (E) [10]: 0.98 | Predicted hepatic CL [10]: 2.554 L/h/kg | EC50 [11, 21]: 253 nM | 5-HT2C BRET Eff % ([11]; Table 2): 114% | 5-HT2C Eff, % ([11]; Table 3 panel): 110% | EC50 [11, 22]: 225 nM | hepatocyte CLint [12]: 234 µL/min/1e6 cells | half-life [12]: 5.93 min | CLint scaled [12]: 65.6 L/h/kg | Hepatic Extraction Ratio (E) [13]: 0.95 | Predicted hepatic CL [13]: 3.153 L/h/kg | IC50 [14]: 2900 nM | IC50 (hERG)/EC50 (5-HT2A) ratio [14]: 604 | Kp ([15]; read-out: Brain Plasma AUC Ratio): 2.14 | bioavailability ([15]; plasma, IM, read-out: IM f (%)): 100% | clearance ([15]; plasma): 0.971 L/h/kg | half-life ([15]; plasma): 120 min | Vd ([15]; plasma): 2.78 L/kg | hepatocyte CLint [16]: 609 µL/min/1e6 cells | half-life [16]: 2.28 min | CLint scaled [16]: 92.9 L/h/kg | Hepatic Extraction Ratio (E) [17]: 0.99 | Predicted hepatic CL [17]: 1.226 L/h/kg | ED50 ([18]; mice): 2.69 mg/kg | central hallucinogenic (or psychedelic) effects compared with psilocybin ([18]; conclusion from Tables 6-8): less central hallucinogenic (or psychedelic) effects than traditional psychedelic compounds such as psilocybin | duration of psychedelic effect (HTR over time) ([18]; mice, FIG. 4, different doses): less than 30 minutes | 5-HT7 EC50, nM ([19]; Table 3): Not active | EC50 ([20]; Table 2, at least three replicate trials, read-out: 5-HT2A BRET EC50): 5.1 nM | 5-HT2A BRET Eff % ([20]; Table 2): 102% | 5-HT2A Eff, % ([20]; Table 3 panel): 99% | EC50 ([20]; Table 3 panel, read-out: 5-HT2A EC50): 4.8 nM | EC50 ([20]; Table 4, unit inferred, read-out: EC50 BRET 2A): 4.8 nM
